# Reference: publication PMC7316778 (Nature Communications, 2020)
# Where “and” joins values, the source holds several entries; their conditions need not be identical. Identical values can stand only once. Like-named read-outs stand apart in the source and are kept apart here.
# Key:
# Test in all cases: SelectScreen kinase assay
# SNF1LK2 = SNF1LK2 (Homo sapiens, UniProt Q9H0K1)
# Experimental: (§1) Selectivity profiling assays were performed by the Invitrogen SelectScreen™ Services. […] The concentration of ATP was selected to be equal to the KM, unless indicated otherwise.
# HIPK3 (YAK1) = HIPK3 (YAK1) (Homo sapiens, UniProt Q9H422)
# Experimental: as §1
# TEC = molecular target: T1, TEC (Homo sapiens, UniProt P42680); settings: for Inhibition at 1 µM (%): LanthaScreen Binding
# T1 sequence (P42680 1-631): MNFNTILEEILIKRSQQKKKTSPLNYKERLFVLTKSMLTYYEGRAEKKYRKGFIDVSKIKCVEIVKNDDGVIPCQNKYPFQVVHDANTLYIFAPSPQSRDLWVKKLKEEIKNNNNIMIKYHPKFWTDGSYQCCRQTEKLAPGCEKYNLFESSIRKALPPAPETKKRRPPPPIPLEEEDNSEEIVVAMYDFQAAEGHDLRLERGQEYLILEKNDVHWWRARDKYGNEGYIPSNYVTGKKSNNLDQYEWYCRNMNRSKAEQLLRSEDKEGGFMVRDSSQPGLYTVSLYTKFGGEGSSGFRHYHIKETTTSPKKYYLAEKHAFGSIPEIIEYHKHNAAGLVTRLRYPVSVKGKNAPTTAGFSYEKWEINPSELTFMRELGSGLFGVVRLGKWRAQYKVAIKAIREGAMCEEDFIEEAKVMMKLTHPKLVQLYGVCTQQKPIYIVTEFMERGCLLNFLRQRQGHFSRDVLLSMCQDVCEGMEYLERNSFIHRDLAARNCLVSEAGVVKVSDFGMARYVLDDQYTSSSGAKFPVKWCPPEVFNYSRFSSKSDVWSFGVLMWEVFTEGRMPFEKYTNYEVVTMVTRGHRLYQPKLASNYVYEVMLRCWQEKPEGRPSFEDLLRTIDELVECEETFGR
# Experimental: as §1
# ACVR2B = ACVR2B (Homo sapiens, UniProt Q13705)
# Experimental: as §1
# BRSK2 = molecular target: T2, BRSK2 (Homo sapiens, UniProt Q8IWQ3)
# T2 sequence (Q8IWQ3 1-736): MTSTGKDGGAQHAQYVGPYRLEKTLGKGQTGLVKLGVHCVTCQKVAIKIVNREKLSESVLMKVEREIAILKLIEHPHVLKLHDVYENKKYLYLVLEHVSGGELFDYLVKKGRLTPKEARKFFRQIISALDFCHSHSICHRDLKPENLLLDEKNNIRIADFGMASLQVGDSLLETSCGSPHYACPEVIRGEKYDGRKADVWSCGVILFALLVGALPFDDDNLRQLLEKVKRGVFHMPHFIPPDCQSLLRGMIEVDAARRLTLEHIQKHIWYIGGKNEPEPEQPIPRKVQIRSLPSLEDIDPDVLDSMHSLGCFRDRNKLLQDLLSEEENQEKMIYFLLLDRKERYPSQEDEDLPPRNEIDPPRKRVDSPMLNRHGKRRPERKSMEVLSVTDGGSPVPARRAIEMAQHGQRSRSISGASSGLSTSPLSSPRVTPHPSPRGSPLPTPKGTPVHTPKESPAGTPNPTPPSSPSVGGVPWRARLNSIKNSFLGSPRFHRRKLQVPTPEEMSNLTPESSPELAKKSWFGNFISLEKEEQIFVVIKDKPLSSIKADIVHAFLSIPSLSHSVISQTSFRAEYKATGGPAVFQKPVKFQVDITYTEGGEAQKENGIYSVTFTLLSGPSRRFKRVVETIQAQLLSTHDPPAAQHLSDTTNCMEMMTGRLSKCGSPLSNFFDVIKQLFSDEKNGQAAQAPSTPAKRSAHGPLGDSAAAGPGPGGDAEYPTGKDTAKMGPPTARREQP
# Experimental: as §1
# RIPK3 = RIPK3 (Homo sapiens, UniProt Q9Y572)
# Experimental: as §1
# ADRBK1 (GRK2) = molecular target: T3, ADRBK1 (GRK2) (Homo sapiens, UniProt P25098); settings: for Inhibition at 1 µM (%): ADRBK1 (GRK2), ZLYTE, ATP Km app
# T3 sequence (P25098 1-689): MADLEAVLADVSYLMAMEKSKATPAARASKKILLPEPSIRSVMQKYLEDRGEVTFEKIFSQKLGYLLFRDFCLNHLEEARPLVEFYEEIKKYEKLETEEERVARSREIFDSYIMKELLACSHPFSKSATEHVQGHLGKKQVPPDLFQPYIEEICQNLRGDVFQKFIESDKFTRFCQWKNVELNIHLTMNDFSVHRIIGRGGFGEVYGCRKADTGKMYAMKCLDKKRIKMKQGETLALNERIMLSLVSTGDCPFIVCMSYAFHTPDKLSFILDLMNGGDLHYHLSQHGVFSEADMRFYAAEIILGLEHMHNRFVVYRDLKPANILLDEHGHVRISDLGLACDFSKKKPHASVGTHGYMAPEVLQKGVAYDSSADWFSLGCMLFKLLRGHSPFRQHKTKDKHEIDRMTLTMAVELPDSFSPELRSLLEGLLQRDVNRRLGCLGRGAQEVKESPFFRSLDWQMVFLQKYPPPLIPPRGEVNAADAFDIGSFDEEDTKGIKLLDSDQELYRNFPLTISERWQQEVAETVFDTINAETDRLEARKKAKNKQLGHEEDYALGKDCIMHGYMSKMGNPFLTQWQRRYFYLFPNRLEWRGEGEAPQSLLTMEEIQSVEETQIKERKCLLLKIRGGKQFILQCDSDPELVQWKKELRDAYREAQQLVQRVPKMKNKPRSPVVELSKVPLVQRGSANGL
# Experimental: as §1
# DNA-PK = DNA-PK (Homo sapiens, UniProt P78527)
# Experimental: as §1
# RPS6KA5 (MSK1) = RPS6KA5 (MSK1) (Homo sapiens, UniProt O75582)
# Experimental: as §1
# YES1 = YES1 (Homo sapiens, UniProt P07947)
# Experimental: as §1
# [1] = 1 µM, ZLYTE, ATP Km app, listed as WEL028, 1 µM
# [2] = 1 h, 1 μM WEL028, 1 h preincubation
# Sequence of ACVR2B (Q13705 19-512): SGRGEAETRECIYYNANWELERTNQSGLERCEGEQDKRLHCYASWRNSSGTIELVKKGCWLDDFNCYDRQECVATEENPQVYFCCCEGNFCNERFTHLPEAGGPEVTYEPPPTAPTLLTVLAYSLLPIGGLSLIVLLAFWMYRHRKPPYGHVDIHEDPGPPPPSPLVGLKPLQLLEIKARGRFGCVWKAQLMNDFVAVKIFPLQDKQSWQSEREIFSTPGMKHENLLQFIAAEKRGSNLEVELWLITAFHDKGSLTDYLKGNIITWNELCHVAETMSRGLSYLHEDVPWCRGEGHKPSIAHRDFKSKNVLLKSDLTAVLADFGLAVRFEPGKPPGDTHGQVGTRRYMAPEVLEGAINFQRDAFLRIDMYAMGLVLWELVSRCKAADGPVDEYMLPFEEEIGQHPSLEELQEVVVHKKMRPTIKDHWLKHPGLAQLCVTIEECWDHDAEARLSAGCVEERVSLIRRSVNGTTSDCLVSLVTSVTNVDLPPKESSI
# Sequence of YES1 (P07947 whole entry): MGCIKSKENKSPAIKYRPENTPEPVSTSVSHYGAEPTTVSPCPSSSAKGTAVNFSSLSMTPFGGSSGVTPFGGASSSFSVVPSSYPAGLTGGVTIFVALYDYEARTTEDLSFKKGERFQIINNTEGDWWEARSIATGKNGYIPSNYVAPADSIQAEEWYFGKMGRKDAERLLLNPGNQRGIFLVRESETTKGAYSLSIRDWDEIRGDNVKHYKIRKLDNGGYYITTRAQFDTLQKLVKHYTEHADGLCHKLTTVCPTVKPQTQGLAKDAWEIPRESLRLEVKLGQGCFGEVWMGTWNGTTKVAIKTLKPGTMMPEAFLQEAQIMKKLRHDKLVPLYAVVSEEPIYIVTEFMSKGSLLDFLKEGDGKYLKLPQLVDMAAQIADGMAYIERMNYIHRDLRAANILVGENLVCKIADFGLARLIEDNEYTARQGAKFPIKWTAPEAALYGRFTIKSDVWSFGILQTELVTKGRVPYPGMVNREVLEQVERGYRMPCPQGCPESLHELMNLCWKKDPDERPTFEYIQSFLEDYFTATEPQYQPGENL
# Sequence of SNF1LK2 (Q9H0K1 whole entry): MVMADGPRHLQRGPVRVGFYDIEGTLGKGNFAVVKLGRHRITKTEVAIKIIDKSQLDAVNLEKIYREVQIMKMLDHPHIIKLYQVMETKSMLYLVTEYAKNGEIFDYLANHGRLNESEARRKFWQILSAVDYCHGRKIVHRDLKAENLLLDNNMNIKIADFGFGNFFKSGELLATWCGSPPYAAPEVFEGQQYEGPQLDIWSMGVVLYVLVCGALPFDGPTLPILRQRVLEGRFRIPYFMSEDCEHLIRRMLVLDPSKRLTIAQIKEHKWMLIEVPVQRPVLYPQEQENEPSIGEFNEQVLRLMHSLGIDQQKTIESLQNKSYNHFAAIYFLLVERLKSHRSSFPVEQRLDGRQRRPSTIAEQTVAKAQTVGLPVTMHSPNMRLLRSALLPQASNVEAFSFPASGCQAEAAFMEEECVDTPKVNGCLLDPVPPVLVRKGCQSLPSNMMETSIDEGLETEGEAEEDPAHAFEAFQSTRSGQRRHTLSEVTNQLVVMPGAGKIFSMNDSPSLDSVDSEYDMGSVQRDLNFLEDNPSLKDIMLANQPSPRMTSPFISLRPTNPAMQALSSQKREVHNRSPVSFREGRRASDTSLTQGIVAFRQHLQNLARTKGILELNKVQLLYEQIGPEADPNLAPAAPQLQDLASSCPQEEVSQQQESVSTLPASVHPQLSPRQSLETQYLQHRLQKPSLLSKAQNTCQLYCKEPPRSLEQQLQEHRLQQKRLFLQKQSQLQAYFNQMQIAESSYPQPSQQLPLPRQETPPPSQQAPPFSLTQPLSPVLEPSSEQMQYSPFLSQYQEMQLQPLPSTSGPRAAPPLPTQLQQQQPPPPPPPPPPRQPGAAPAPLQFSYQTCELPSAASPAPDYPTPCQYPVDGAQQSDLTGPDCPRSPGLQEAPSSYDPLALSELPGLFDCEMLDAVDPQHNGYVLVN
# Sequence of RPS6KA5 (MSK1) (O75582 whole entry): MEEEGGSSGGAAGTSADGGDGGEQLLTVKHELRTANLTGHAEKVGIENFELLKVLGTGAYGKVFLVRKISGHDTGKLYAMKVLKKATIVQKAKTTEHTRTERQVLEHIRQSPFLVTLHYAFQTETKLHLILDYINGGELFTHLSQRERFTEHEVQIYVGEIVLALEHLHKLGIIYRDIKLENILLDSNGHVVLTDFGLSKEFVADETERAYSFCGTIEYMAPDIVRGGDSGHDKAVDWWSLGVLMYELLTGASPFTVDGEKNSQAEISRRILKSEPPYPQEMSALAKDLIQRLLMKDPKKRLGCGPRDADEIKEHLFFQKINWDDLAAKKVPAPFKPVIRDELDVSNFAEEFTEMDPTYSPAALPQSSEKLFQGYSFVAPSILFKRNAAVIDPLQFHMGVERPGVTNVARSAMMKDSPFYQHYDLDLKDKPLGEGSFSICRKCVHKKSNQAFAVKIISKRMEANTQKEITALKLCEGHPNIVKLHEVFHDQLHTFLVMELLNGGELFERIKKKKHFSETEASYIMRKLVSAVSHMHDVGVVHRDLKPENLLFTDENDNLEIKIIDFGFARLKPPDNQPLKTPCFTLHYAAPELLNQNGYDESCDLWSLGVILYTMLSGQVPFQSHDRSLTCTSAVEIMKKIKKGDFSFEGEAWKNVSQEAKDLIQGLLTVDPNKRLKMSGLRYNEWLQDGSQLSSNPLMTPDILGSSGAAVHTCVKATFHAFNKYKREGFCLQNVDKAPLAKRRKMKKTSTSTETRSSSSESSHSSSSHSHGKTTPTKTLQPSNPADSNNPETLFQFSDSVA
# Sequence of RIPK3 (Q9Y572 whole entry): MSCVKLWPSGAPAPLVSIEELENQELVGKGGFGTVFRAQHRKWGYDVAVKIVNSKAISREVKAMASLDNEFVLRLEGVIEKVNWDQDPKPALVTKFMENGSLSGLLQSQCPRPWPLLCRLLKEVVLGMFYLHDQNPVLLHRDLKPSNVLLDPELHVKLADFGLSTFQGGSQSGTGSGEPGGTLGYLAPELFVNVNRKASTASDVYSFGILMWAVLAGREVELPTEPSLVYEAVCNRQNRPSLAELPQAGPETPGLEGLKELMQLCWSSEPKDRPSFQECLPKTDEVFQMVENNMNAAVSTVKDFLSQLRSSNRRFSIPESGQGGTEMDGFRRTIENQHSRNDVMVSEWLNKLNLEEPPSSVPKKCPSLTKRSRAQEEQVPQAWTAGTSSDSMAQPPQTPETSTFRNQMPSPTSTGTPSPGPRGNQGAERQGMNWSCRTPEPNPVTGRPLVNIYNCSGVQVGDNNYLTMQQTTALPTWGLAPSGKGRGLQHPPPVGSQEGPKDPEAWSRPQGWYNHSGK
# Sequence of HIPK3 (YAK1) (Q9H422 whole entry): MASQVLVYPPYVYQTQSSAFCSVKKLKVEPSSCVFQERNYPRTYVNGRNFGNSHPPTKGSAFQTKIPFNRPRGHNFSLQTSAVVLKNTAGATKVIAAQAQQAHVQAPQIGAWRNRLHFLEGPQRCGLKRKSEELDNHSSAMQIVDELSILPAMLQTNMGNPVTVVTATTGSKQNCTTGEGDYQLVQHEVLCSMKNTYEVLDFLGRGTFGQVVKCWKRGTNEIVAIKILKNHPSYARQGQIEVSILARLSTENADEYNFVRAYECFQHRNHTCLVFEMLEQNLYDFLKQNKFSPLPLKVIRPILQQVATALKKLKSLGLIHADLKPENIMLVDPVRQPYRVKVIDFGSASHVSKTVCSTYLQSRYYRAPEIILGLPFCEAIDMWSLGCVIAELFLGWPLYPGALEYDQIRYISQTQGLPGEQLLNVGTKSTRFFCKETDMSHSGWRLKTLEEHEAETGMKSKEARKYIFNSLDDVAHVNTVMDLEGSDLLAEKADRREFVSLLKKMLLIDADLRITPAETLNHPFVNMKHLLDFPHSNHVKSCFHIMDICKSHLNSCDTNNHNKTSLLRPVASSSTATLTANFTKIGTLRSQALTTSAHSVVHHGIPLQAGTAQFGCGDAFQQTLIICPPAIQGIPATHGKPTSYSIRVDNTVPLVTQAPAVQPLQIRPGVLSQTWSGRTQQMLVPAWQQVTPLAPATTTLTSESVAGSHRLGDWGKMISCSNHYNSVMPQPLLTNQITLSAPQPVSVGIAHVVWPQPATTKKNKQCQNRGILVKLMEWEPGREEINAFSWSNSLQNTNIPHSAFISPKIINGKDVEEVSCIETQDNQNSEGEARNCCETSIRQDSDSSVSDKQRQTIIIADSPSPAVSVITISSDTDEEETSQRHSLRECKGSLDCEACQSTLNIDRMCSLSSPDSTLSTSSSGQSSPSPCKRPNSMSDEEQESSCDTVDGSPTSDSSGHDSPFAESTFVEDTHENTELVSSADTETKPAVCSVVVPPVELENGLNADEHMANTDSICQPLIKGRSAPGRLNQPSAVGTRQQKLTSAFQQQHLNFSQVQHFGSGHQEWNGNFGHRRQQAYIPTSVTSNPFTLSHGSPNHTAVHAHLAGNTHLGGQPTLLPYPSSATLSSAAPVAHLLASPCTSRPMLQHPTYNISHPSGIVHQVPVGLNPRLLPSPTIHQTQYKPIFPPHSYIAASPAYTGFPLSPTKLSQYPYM
compound,measurement,setting,value
C#CCOc1ccc(Nc2ncc(Cl)c(Nc3ccccc3NC(=O)C=C)n2)c(OC)c1 [Compound 6],Inhibition at 1 µM (%),SNF1LK2; [1],-8% and -5%
same,inhibition at 1 µM,SNF1LK2; [2],-6%
same,inhibition at 1 µM,HIPK3 (YAK1); [2],-3%
same,Inhibition at 1 µM (%),"HIPK3 (YAK1); HIPK3 (YAK1), 1 µM, ZLYTE, ATP Km app",-11%
same,Inhibition at 1 µM (%),TEC,2%
same,Inhibition at 1 µM (%),"TEC; listed as WEL028, 1 µM",7%
same,inhibition at 1 µM,TEC; [2],5%
same,Inhibition (%),"ACVR2B; 1 μM WEL028, 1 h preincubation",9%
same,Inhibition at 1 µM (%),"ACVR2B; ACVR2B, 1 µM, LanthaScreen Binding, listed as WEL028, 1 µM",7%
same,inhibition at 1 µM,"ACVR2B; read-out: Inhibition at 1 µM (%), ACVR2B, 1 µM, LanthaScreen Binding",12%
same,inhibition at 1 µM,BRSK2; [2],7%
same,Inhibition at 1 µM (%),"BRSK2; BRSK2, 1 µM, LanthaScreen Binding, listed as WEL028, 1 µM",8%
same,inhibition at 1 µM,"BRSK2; read-out: Inhibition at 1 µM (%), BRSK2, 1 µM, LanthaScreen Binding",7%
same,inhibition at 1 µM,RIPK3; [2],1%
same,inhibition at 1 µM,"RIPK3; read-out: Inhibition at 1 µM (%), 1 µM, LanthaScreen Binding",2%
same,inhibition at 1 µM,ADRBK1 (GRK2); [2],4%
same,Inhibition at 1 µM (%),ADRBK1 (GRK2),2%
same,Inhibition at 1 µM (%),"ADRBK1 (GRK2); listed as WEL028, 1 µM",6%
same,inhibition at 1 µM,DNA-PK; [2],6%
same,Inhibition at 1 µM (%),"DNA-PK; DNA-PK, 1 µM, ZLYTE, ATP Km app, listed as WEL028, 1 µM",8%
same,inhibition at 1 µM,"DNA-PK; read-out: Inhibition at 1 µM (%), DNA-PK, 1 µM, ZLYTE, ATP Km app",4%
same,Inhibition at 1 µM (%),"RPS6KA5 (MSK1); 1 µM, ZLYTE, ATP Km app",-13%
same,inhibition at 1 µM,RPS6KA5 (MSK1); [2],-7%
same,Inhibition at 1 µM (%),YES1; [1],10%
same,inhibition at 1 µM,YES1; [2],8%
same,inhibition at 1 µM,"YES1; read-out: Inhibition at 1 µM (%), 1 µM, ZLYTE, ATP Km app",7%
